Earlier results in patent publication US20070253988A1, “Methods for peeling skin” (L'OREAL, priority 2006, published 2007).

Details: approximately 20° C., concentration of 0.1 M

In order of rising pKa:
1. O=S(=O)(O)CCN1CCN(CCS(=O)(=O)O)CC1 [piperazine-N,N′-bis[2-ethanesulfonic]acid]  6.82
2. NC(=O)CNCCS(=O)(=O)O [N-(2-acetamido)-2-aminoethanesulfonic acid]  6.88
3. O=S(=O)(O)CCN(CCO)CCO [N,N-bis[2-hydroxyethyl]-2-aminoethanesulfonic acid]  7.17
4. O=S(=O)(O)CCN1CCN(CCO)CC1 [N-2-hydroxyethylpiperazine-N′-2-ethanesulfonic acid]  7.55
